# Reference: patent US12134610B2, “Somatostatin subtype-2 receptor (SST2R) targeted therapeutics and uses thereof” (priority 2022, dated 2024)
# Where two headings read alike, the source gives them in different places. Starred links: 1 amine or outer side, 2 acyl side, 3 side chain; linkers in the order of their positions; H or OH if unused. Non-standard residues stand in square brackets, D forms with d. Residues, ends and D or L forms follow the SMILES beside them. *: point of attachment. PABC(3-O-βDGlc) = O=C(OCc1ccc(N[*:1])c(O[C@@H]2O[C@H](CO)[C@@H](O)[C@H](O)[C@H]2O)c1)[*:2]; X1 = Cc1cc(F)cc(-c2cnc(NCCNC(=O)CCOCCC(=O)*)c(-c3nc4ccc(Cl)cc4[nH]3)c2N2CCC(N)CC2)c1; X5 = Cc1cc(F)cc(-c2cnc(NCCNC(=O)CCOCCC(=O)*)c(-c3nc4cc(Cl)ccc4[nH]3)c2N2CCC(N)CC2)c1; Dolaproine = CO[C@@H]([C@@H]1CCCN1)[C@@H](C)C(=O)O; Dil = CC[C@H](C)[C@H](NC)[C@@H](CC(=O)O)OC; PABC = O=C(OCc1ccc(N[*:1])cc1)[*:2]; X2 = C[C@@H](N*)[C@@H](O)c1ccccc1; Cya = N[C@@H](CS(=O)(=O)O)C(=O)O; Cit = NC(=O)NCCC[C@H](N)C(=O)O; NMeV = CN[C@H](C(=O)O)C(C)C
# Experiments:
# Assay type in all cases: cell-based
# SST2 = molecular target: T1, SST2 (Homo sapiens, UniProt P30874); test: PathHunter CHO-K1 SST2 internalization assay; details: PathHunter CHO-K1 SST2, 90 min
# T1 construct: host or cells: PathHunter CHO-K1 SST2 cells
# Procedure: SMDCs of the present invention were assessed in vitro using the human PathHunter CHO-K1 SST2 β-arrestin2 and PathHunter CHO-K1 SST2 Internalization Assays from DiscoverX. The CHO-K cells were seeded in 20 μLs of cell culture medium in a white-walled 384 well tissue culture-compatible plate at a density of 2500 cells/well. After a 48-hour incubation, cells were treated with 5 μLs of a 1:3 serially diluted SST2 SMDC prepared at 5× concentration with a final top compound concentration of 10 uM for 90 min at 37 C and in 5% CO2. 11 dilutions were tested as well as one treatment that was compound free. After incubation, the media containing treatments were discarded and 20 μL of a working solution of Beta-Glo from Promega Beta-Glo Assay System was added to each well. The plate was then incubated for 60 min at room temperature in the dark. Luminescence was measured using a Tecan plate reader. IC50 curves were generated using the nonlinear regression analysis (four-parameters) with GraphPad Prism 9. Results were the average of duplicates and are corrected for background.
# [1] = molecular target: T2, human somatostatin receptor subtype 2 (Homo sapiens, UniProt P30874); test: Functional cAMP assay for SSTR2 agonists (HTRF) in CHO-K1 cells; details: CHO-K1 cells stably expressing human SST2, 20 min
# T2 construct: expressed in transfected cells
# Description: General overview: All five SSTR subtypes are Gi coupled G-protein coupled receptors (GPCRs) that lead to decreases in intracellular cyclic AMP (cAMP) when activated by an agonist. Therefore, measurement of intracellular cAMP levels can be used to assess whether compounds of the invention are agonists of SSTR subtypes (John Kelly, Troy Stevens, W. Joseph Thompson, and Roland Seifert, Current Protocols in Pharmacology, 2005, 2.2.1-2.2). One example of an intracellular cAMP assay is described below.
# Functional Assay for SSTR2 Agonists
# Four days prior to the assay, 2,000 Chinese hamster ovary cells (CHO-K1, ATCC #CCL-61) stably expressing the human somatostatin receptor subtype 2 are plated in each well of a 96-well tissue culture-treated plate in Ham's F12 growth media (ThermoFisher #10-080-CM) supplemented with 10% donor bovine serum (Gemini Bio-Products #100-506), 100 U/mL penicillin; 100 ug/mL streptomycin; 2 mM L-glutamine (Gemini Bio-Products #400-110) and 0.2 mg/mL hygromycin B (GoldBio #31282-04-9). The cells are cultured at 37° C., 5% CO2 and 95% humidity. cAMP is measured with HTRF dynamic cAMP assay (Cisbio, #62AM5PEJ) per manufacturer's instructions. On the day of the assay, the media is aspirated and the cells are treated with 50 μL of stimulation buffer supplemented with 10.2 mM 3-Isobutyl-1-methylxanthine (IBMX, Millipore Sigma #15879) and 1.6 μM NKH477 (Tocris #1603), plus various dilutions of SMDCs of the present invention. The cells are incubated for 20 minutes at 37° C. (the final concentration of the compounds of the invention are typically 0-10,000 nM). The cells are treated with 50 μL of lysis buffer (HRTF cAMP kit, Cisbio) and incubated at room temperature for 30 minutes with rotary shaking at 600 rpm, and then diluted with 150 μL of stimulation buffer and shaken for an additional five minutes at 300 rpm. The lysate is transferred to 384-well plates and incubated for 1-24 hours at room temperature, and cAMP accumulation is detected by d2-labeled cAMP and Anti-cAMP-Cryptate. The time-resolved fluorescent signal is read using a m1000 Pro (Tecan) or CLARIOStar (BMG Labtech) microplate reader, where the samples are excited with light at 340 nm and emission light is measured at 620 nm and 665 nm. The data is expressed as a calculation of the fluorescence ratio (665 nm/620 nm). The intracellular cAMP concentrations are calculated by regression to a standard curve and are plotted vs. the concentration of the compounds of the invention. The EC50 of the compounds are calculated using standard methods. All data manipulations are in GraphPad Prism v9 (GraphPad, San Diego, CA).
# [2] = system: NCI-H524 (ATCC) human small cell lung cancer cells; details: 2 h
# Procedure: SMDCs of the present invention were assessed in an in vitro assay evaluating the inhibition of cell proliferation. NCI-H524 (ATCC) human small cell lung cancer cells were plated in 96-well V-bottom plates (Costar) at a concentration of 5,000 cells/well. 24 h later, the cells were treated for 2 h with a SMDC. SMDC starting dose was 1 uM and two-fold serial dilutions were done for a total of 11 points. After 2 h of treatment, cells were spun down, and the drug-containing media was removed, and fresh complete media was added and used to resuspend the cells, which were spun again. After removal of the media, the cells were resuspended in complete medium and incubated for an additional 70 h. Cell proliferation was assessed using the CellTiter Glo Assay according to the standard protocol (Promega). Luminescence was measured using a TECAN plate reader. Percent proliferation inhibition was calculated using the following formula: % inhibition=(Luminescence Control−Luminescence Treatment)/Luminescence Control*100. IC50 curves were generated using the nonlinear regression analysis (four-parameter) with GraphPad Prism 9.
# T1 sequence (P30874 whole entry): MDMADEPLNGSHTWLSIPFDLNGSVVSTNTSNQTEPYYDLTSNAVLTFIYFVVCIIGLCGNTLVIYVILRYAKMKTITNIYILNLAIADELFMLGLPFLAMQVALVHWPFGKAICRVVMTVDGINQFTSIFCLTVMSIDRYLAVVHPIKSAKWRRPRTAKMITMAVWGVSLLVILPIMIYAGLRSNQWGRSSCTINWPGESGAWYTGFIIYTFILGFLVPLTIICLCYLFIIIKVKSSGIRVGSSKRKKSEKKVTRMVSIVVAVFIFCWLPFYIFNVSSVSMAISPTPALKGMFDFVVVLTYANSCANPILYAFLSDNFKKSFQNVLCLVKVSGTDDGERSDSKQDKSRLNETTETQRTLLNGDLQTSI
# T2 sequence (P30874 whole entry): as above
SMILES,EC50 (SST2; read-out: Internalization EC50) [nM],EC50 ([1]; read-out: hSST2 cAMP Avg EC50) [nM],EC50 [2] [nM],EC50 (SST2; Internalization EC50 (nM)) [nM],EC50 ([1]; hSST2 cAMP Avg EC50 (nM)) [nM]
CC[C@H](C)[C@@H]([C@@H](CC(=O)N1CCC[C@H]1[C@H](OC)[C@@H](C)C(=O)N[C@H](C)[C@@H](O)c1ccccc1)OC)N(C)C(=O)[C@@H](NC(=O)[C@H](C(C)C)N(C)C(=O)OCc1ccc(NC(=O)[C@H](CCCNC(N)=O)NC(=O)[C@@H](NC(=O)[C@H](CS(=O)(=O)O)NC(=O)CCOCCOCCOCCOCCC(=O)NCCNc2ncc(-c3cc(C)cc(F)c3)c(N3CCC(N)CC3)c2-c2nc3ccc(Cl)cc3[nH]2)C(C)C)cc1C(=O)NCCN)C(C)C [Compound 157],12,0.17,,,
CCC(C)C(C(CC(=O)N1CCCC1C(OC)C(C)C(=O)NC(C)C(O)c1ccccc1)OC)N(C)C(=O)C(NC(=O)C(C(C)C)N(C)C(=O)OCc1ccc(NC(=O)[C@H](CCCNC(N)=O)NC(=O)[C@@H](NC(=O)CNC(=O)[C@H](Cc2ccccc2)NC(=O)CNC(=O)CNC(=O)CCOCCC(=O)NCCNc2ncc(-c3cc(C)cc(F)c3)c(N3CCC(N)CC3)c2-c2nc3ccc(Cl)cc3[nH]2)C(C)C)cc1)C(C)C (stereo in doubt) [Compound 30],7.1,0.56,28.6,,
CC[C@H](C)[C@@H]([C@@H](CC(=O)N1CCC[C@H]1[C@H](OC)[C@@H](C)C(=O)N[C@H](C)[C@@H](O)c1ccccc1)OC)N(C)C(=O)[C@@H](NC(=O)[C@H](C(C)C)N(C)C(=O)OCc1ccc(NC(=O)[C@H](CCCNC(N)=O)NC(=O)[C@@H](NC(=O)CCOCCOCCC(=O)NCCNc2ncc(-c3cc(C)cc(F)c3)c(N3CCC(N)CC3)c2-c2nc3ccc(Cl)cc3[nH]2)C(C)C)c(O[C@@H]2O[C@H](C(=O)O)[C@@H](O)[C@H](O)[C@H]2O)c1)C(C)C [Compound 137],4.6,0.51,6.7,,
CC[C@H](C)[C@@H]([C@@H](CC(=O)N1CCC[C@H]1[C@H](OC)[C@@H](C)C(=O)N[C@H](C)[C@@H](O)c1ccccc1)OC)N(C)C(=O)[C@@H](NC(=O)[C@H](C(C)C)N(C)C(=O)OCc1ccc(NC(=O)[C@H](C)NC(=O)[C@@H](NC(=O)[C@H](CCC(=O)O)NC(=O)CCOCCC(=O)NCCNc2ncc(-c3cc(C)cc(F)c3)c(N3CCC(N)CC3)c2-c2nc3cc(Cl)ccc3[nH]2)C(C)C)cc1)C(C)C [Compound 32] (X5-EVA[PABC][NMeV]V[Dil][Dolaproine]-X2),,,155,,
CC[C@H](C)[C@@H]([C@@H](CC(=O)N1CCC[C@H]1[C@H](OC)[C@@H](C)C(=O)N[C@H](C)[C@@H](O)c1ccccc1)OC)N(C)C(=O)[C@@H](NC(=O)[C@H](C(C)C)N(C)C(=O)OCc1ccc(NC(=O)[C@H](CCCNC(N)=O)NC(=O)[C@@H](NC(=O)[C@H](CCC(N)=O)NC(=O)CCOCCC(=O)NCCNc2ncc(-c3cc(C)cc(F)c3)c(N3CCC(N)CC3)c2-c2nc3ccc(Cl)cc3[nH]2)C(C)C)c(O[C@@H]2O[C@H](CO)[C@@H](O)[C@H](O)[C@H]2O)c1)C(C)C [Compound 136] (X1-QV[Cit][PABC(3-O-βDGlc)][NMeV]V[Dil][Dolaproine]-X2),6.7,0.23,5.8,,
CC[C@H](C)[C@@H]([C@@H](CC(=O)N1CCC[C@H]1[C@H](OC)[C@@H](C)C(=O)N[C@H](C)[C@@H](O)c1ccccc1)OC)N(C)C(=O)[C@@H](NC(=O)[C@H](C(C)C)N(C)C(=O)OCc1ccc(NC(=O)[C@H](C)NC(=O)[C@@H](NC(=O)CCOCCOCCOCCOCCC(=O)NCCNc2ncc(-c3cc(C)cc(F)c3)c(N3CCC(N)CC3)c2-c2nc3ccc(Cl)cc3[nH]2)C(C)C)c(O[C@@H]2O[C@H](C(=O)O)[C@@H](O)[C@H](O)[C@H]2O)c1)C(C)C [Compound 150],5.6,0.18,9.3,,
CC[C@H](C)[C@@H]([C@@H](CC(=O)N1CCC[C@H]1[C@H](OC)[C@@H](C)C(=O)N[C@H](C)[C@@H](O)c1ccccc1)OC)N(C)C(=O)[C@@H](NC(=O)[C@H](C(C)C)N(C)C(=O)OCc1ccc(NC(=O)[C@H](CCCNC(N)=O)NC(=O)[C@@H](NC(=O)[C@H](CCC(N)=O)NC(=O)CCOCCC(=O)NCCNc2ncc(-c3cc(C)cc(F)c3)c(N3CCC(N)CC3)c2-c2nc3ccc(Cl)cc3[nH]2)C(C)C)cc1C(N)=O)C(C)C [Compound 112],2.9,0.16,10,,
CC[C@H](C)[C@@H]([C@@H](CC(=O)N1CCC[C@H]1[C@H](OC)[C@@H](C)C(=O)N[C@H](C)[C@@H](O)c1ccccc1)OC)N(C)C(=O)[C@@H](NC(=O)[C@H](C(C)C)N(C)C(=O)OCc1ccc(NC(=O)[C@H](CCCNC(N)=O)NC(=O)[C@@H](NC(=O)[C@H](CS(=O)(=O)O)NC(=O)[C@H](CCC(=O)O)NC(=O)CCOCCC(=O)NCCNc2ncc(-c3cc(C)cc(F)c3)c(N3CCC(N)CC3)c2-c2nc3ccc(Cl)cc3[nH]2)C(C)C)cc1)C(C)C [Compound 115] (X1-E[Cya]V[Cit][PABC][NMeV]V[Dil][Dolaproine]-X2),3.6,0.08,,,
"Cc1cc(F)cc(-c2cnc(NCCNC(=O)CCOCCOCCOCCOCCNC(=O)CCCCC[N+]3=C(/C=C/C=C/C=C4/N(C)c5ccccc5C4(C)C)C(C)(C)c4ccccc43)c(-c3nc4ccc(Cl)cc4[nH]3)c2N2CCC(N)CC2)c1 [Compound 12, 1-[5-({14-[(2-{[4-(4-aminopiperidin-1-yl)-3-(6-chloro-1H-1,3-benzodiazol-2-yl)-5-(3-fluoro-5-methylphenyl)pyridin-2-yl]amino}ethyl)carbamoyl]-3,6,9,12-tetraoxatetradecan-1-yl}carbamoyl)pentyl]-3,3-dimethyl-2-[(1E,3E)-5-[(2E)-1,3,3-trimethyl-2,3-dihydro-1H-indol-2-ylidene]penta-1,3-dien-1-yl]-3H-indol-1-ium]",2.9,0.39,,,
CC[C@@]1(O)C(=O)OCc2c1cc1n(c2=O)Cc2c-1nc1cc(F)c(C)c3c1c2[C@@H](NC(=O)OCc1ccc(NC(=O)[C@H](CCCNC(N)=O)NC(=O)[C@@H](NC(=O)CCOCCOCCOCCOCCC(=O)NCCNc2ncc(-c4cc(C)cc(F)c4)c(N4CCC(N)CC4)c2-c2nc4ccc(Cl)cc4[nH]2)C(C)C)c(O[C@@H]2O[C@H](C(=O)O)[C@@H](O)[C@H](O)[C@H]2O)c1)CC3 [Compound 127],,,,13,0.26
CC[C@H](C)[C@@H]([C@@H](CC(=O)N1CCC[C@H]1[C@H](OC)[C@@H](C)C(=O)N[C@H](C)[C@@H](O)c1ccccc1)OC)N(C)C(=O)[C@@H](NC(=O)[C@H](C(C)C)N(C)C(=O)OCc1ccc(NC(=O)[C@H](CCCNC(N)=O)NC(=O)[C@@H](NC(=O)[C@H](CS(=O)(=O)O)NC(=O)CCOCCOCCOCCOCCC(=O)NCCNc2ncc(-c3cc(C)cc(F)c3)c(N3CCC(N)CC3)c2-c2nc3cc(Cl)ccc3[nH]2)C(C)C)cc1)C(C)C [Compound 81],,,32,,
